In patent US7485637B2, “Benzoyl-tetrahydropiperidine derivatives” (Hoffmann-La Roche Inc., priority 2005, dated 2009):

Molecular target: T1, mGlyT-1b (Mus musculus, UniProt P28571)
T1 construct: host or cells: Flp-in-CHO
T1 sequence (P28571 1-651 isoform P28571-2): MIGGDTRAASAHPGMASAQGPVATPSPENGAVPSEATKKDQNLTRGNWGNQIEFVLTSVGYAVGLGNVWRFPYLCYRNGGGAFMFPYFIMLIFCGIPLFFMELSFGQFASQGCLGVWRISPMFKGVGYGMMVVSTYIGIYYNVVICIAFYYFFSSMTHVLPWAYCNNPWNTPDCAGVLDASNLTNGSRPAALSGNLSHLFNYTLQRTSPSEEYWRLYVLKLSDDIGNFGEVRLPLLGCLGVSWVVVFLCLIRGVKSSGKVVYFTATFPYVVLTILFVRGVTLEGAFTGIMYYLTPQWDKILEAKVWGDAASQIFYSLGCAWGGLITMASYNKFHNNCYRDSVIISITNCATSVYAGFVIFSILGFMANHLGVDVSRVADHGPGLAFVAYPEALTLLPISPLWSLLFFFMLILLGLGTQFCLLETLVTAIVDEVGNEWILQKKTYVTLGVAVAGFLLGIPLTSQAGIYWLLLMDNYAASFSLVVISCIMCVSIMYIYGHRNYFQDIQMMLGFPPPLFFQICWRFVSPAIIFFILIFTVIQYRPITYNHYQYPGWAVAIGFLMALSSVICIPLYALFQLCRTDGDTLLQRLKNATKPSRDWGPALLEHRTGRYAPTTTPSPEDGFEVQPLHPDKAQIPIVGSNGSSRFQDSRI
Assay: Glycine Uptake Inhibition Assay (mGlyT-1b)
Type: cell-based
Conditions: [3H]-glycine uptake, Flp-in-CHO cells transfected with mGlyT-1b cDNA, 20 min preincubation at 22° C.; read-out: IC50 (μM) at GlyT-1
Method: DMEM complete medium: Nutrient mixture F-12 (Gibco Life-technologies), fetal bovine serum (FBS) 5%, (Gibco life technologies), Penicillin/Streptomycin 1% (Gibco life technologies), Hygromycin 0.6 mg/ml (Gibco life technologies), Glutamine 1 mM Gibco life technologies)
Uptake buffer (UB): 150 mM NaCl, 10 mM Hepes-Tris, pH 7.4, 1 mM CaCl2, 2.5 mM KCl, 2.5 mM MgSO4, 10 mM (+) D-glucose.
Flp-in™-CHO (Invitrogen Cat n° R758-07) cells stably transfected with mGlyT1b cDNA.
Glycine Uptake Inhibition Assay (mGlyT-1b)
On day 1 mammalian cells, (Flp-in™-CHO), transfected with mGlyT-1b cDNA, were plated at the density of 40,000 cells/well in complete F-12 medium, without hygromycin in 96-well culture plates. On day 2, the medium was aspirated and the cells were washed twice with uptake buffer (UB). The cells were then incubated for 20 min at 22° C. with either (i) no potential competitor, (ii) 10 mM non-radioactive glycine, (iii) a concentration of a potential inhibitor. A range of concentrations of the potential inhibitor was used to generate data for calculating the concentration of inhibitor resulting in 50% of the effect (e.g. IC50, the concentration of the competitor inhibiting glycine uptake of 50%). A solution was then immediately added containing [^3H]-glycine 60 nM (11-16 Ci/mmol) and 25 μM non-radioactive glycine. The plates were incubated with gentle shaking and the reaction was stopped by aspiration of the mixture and washing (three times) with ice-cold UB. The cells were lysed with scintillation liquid, shaken 3 hours and the radioactivity in the cells was counted using a scintillation counter.

Row | SMILES | IC50 [µM]
1 | O=C(c1cc([N+](=O)[O-])ccc1N1CCOCC1)N1CC=C(c2ccccc2)CC1 [Example 1, (2-Morpholin-4-yl-5-nitro-phenyl)-(4-phenyl-3,6-dihydro-2H-pyridin-1-yl)-methanone] | 0.803
2 | O=C(c1cc([N+](=O)[O-])ccc1N1CCOCC1)N1CC=C(c2ccc(Cl)cc2)CC1 [Example 2, [4-(4-Chloro-phenyl)-3,6-dihydro-2H-pyridin-1-yl]-(2-morpholin-4-yl-5-nitrophenyl) methanone] | 0.432
3 | N#Cc1ccc(C2=CCN(C(=O)c3cc([N+](=O)[O-])ccc3N3CCOCC3)CC2)cc1 [Example 3, 4-[1-(2-Morpholin-4-yl-5-nitro-benzoyl)-1,2,3,6-tetrahydro-pyridin-4-yl]benzonitrile] | 0.27
4 | CS(=O)(=O)c1ccc(OCC(F)(F)F)c(C(=O)N2CC=C(c3ccc(C(F)(F)F)cc3)CC2)c1 [Example 4, [5-Methanesulfonyl-2-(2,2,2-trifluoro-ethoxy)-phenyl]-[4-(4-trifluoromethyl-phenyl)3,6-dihydro-2H-pyridin-1-yl]-methanone] | 0.122
5 | CS(=O)(=O)c1ccc(N2CCOCC2)c(C(=O)N2CC=C(c3ccc(C(F)(F)F)cc3)CC2)c1 [Example 5, (5-Methanesulfonyl-2-morpholin-4-yl-phenyl)-[4-(4-trifluoromethyl-phenyl)-3,6 dihydro-2H-pyridin-1-yl]-methanone] | 0.232
6 | CS(=O)(=O)c1ccc(C2=CCN(C(=O)c3cc([N+](=O)[O-])ccc3N3CCOCC3)CC2)cc1 [Example 6, [4-(4-Methanesulfonyl-phenyl)-3,6-dihydro-2H-pyridin-1-yl]-(2-morpholin-4-yl-5-nitro-phenyl)-methanone] | 0.251
7 | CC(C)Oc1ccc(S(C)(=O)=O)cc1C(=O)N1CC=C(c2ccc(S(C)(=O)=O)cc2)CC1 [Example 7, (2-Isopropoxy-5-methanesulfonyl-phenyl)-[4-(4-methanesulfonyl-phenyl)-3,6-dihydro-2H-pyridin-1-yl]-methanone] | 0.87
8 | CS(=O)(=O)c1ccc(C2=CCN(C(=O)c3cc(S(C)(=O)=O)ccc3OC3CCCC3)CC2)cc1 [Example 8, (2-Cyclopentyloxy-5-methanesulfonyl-phenyl)-[4-(4-methanesulfonyl-phenyl)-3,6-dihydro-2H-pyridin-1-yl]-methanone] | 0.201
9 | CC(C)Oc1ccc(C#N)cc1C(=O)N1CC=C(c2ccc(Cl)cc2)CC1 [Example 9, 3-[4-(4-Chloro-phenyl)-3,6-dihydro-2H-pyridine-1-carbonyl]-4-isopropoxy-benzonitrile] | 0.28
10 | CS(=O)(=O)c1ccc(OCC2CC2)c(C(=O)N2CC=C(c3ccc(Cl)cc3)CC2)c1 [Example 10, [4-(4-Chloro-phenyl)-3,6-dihydro-2H-pyridin-1-yl]-(2-cyclopropylmethoxy-5-methanesulfonyl-phenyl)-methanone] | 0.056
